Measurements published in US20230225991A1, “COMPOUNDS FOR USE IN THE TREATMENT OF ACUTE INTERMITTENT PORPHYRIA” (VESTLANDETS INNOVASJONSSELSKAP AS, priority 2019, published 2023).
“Also recorded” adds a separate entry of the source.

Key:
[1] = system: Hmbs-deficient T1/T2−/− mice; test: Mouse trial T1/T2-A, phenobarbital-induced biochemical acute attack
WT-HMBS [2] = target: T1, WT-HMBS (Homo sapiens, UniProt P08397); test: HMBS activity after pre-incubation with compound at 70° C.; assay type: biochemical; conditions: pre-incubation with compound at 70° C. 20 min, then standard assay 100 μM PBG at 37° C., 84 μM compound, 2% DMSO
T1 construct: Full-length HMBS was cloned into pET-28a(+)-TEV vector and transformed into BL21 (DE3) cells for expression; 6xHis (N, cleaved yes); TEV protease cleavage site (N, cleaved yes); made in house; host or cells: E. coli BL21 (DE3)
T1 sequence (P08397 1-361): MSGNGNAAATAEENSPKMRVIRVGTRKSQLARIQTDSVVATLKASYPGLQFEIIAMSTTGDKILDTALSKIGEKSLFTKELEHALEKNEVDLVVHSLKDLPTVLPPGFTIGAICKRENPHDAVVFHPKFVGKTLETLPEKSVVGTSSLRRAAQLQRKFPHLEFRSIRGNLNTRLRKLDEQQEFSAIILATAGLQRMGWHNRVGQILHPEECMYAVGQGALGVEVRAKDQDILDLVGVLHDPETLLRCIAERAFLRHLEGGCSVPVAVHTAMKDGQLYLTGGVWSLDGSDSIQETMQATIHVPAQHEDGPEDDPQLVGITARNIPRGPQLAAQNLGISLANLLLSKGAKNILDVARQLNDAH
Description: The effect of the compounds on the stability of HMBS activity was assayed by pre-incubating the HMBS (4-5 μg) in 50 mM HEPES pH 8.2, 84 μM compound and 2% DMSO for 20 min at 70° C., and then placed on ice for 5 min. The enzymatic activity at 37° C. was subsequently measured as reported previously (Bustad et al., Bioscience reports 2013; 3 3(4)). Controls without compound but with equal concentration of DMSO were included. The remaining activity in the presence of compounds was normalized relative to DMSO-control (relative activity). […] USA, www.graphpad.com.
An enzymatic assay was performed to investigate the effect of compound BG-1 on the activity and conformational stability of HMBS. HMBS activity of the purified enzyme was measured in the absence and presence of compound BG-1 (at 84 μM) at standard conditions (37° C.) but also after pre-incubation at 70° C. for 20 min based on the high thermal stability of WT-HMBS.

WT-HMBS [3] = target: T1, WT-HMBS; test: DSF thermal upshift (ΔTm) of HMBS; assay type: binding
Description: Compounds BG-2, BG-3 and BG-4 were tested on recombinant WT-HMBS using DSF and tryptic proteolysis.

[4] = system: Hmbs-deficient T1/T2−/− mice; test: Mouse trial T1/T2-B, phenobarbital-induced biochemical acute attack; assay type: in vivo; conditions: 20 mg/kg/day, 12 days; for Hepatic HMBS enzyme activity in liver homogenates: compared with control group; for Urinary ALA and PBG excretion: versus control group; for Increase in steady-state levels of HMBS in liver tissue: quantitative western immunoblotting
Description: The crude liver homogenates were passed through Zeba spin desalting columns (Thermo Fisher Scientific) to remove small molecules <2000 Da. 50 mM HEPES pH 8.2 was used as equilibration buffer. 25 μl filtrated homogenate (400-500 μg total protein) was added to 110 μl sample mix (50 mM HEPES, pH 8.2, 1% Triton™ X-100) and incubated for 10 min at 37° C. before adding PBG (1 mM). The reaction was stopped after 1 h by adding ice-cooled 100% TCA to a final concentration of 25%, incubated at room temperature (RT) for 10 min and centrifuged at 10,000 g for 10 min. The absorption was measured in the supernatant at A409 with baseline correction at A380 using NanoDrop™ 2000c spectrophotometer (Thermo Fisher Scientific). The activity of HMBS was expressed as relative activity in the compound-treated […] compared to DMSO-controls. A blank sample was prepared for each homogenate. The unpaired t-test (two tailed) was performed using GraphPad Prism.
Liver homogenates (5 μg total protein/lane) were loaded onto 10% Mini-Protean® TGX™ gels (Bio-Rad) and separated with Tris/Glycine/SDS electrophoresis buffer (Bio-Rad). Trans-Blot® Turbo™ Transfer Starter System (Bio-Rad) was used to transfer the proteins onto Immun-Blot® low fluorescence PVDF membranes (Bio-Rad). The membranes were then blocked with TBS containing 1% Tween® 20 (1% TBS-T) and 3% BSA for 1 h. HMBS was probed with 1:2,000 monoclonal mouse anti-HMBS (H-11, Santa Cruz Biotechnology), together with 1:1,000 rabbit anti-actin (Sigma-Aldrich), in 1% TBS-T, 3% BSA overnight, 4° C. Alexa Fluor 647 conjugated donkey-anti-mouse and Alexa Fluor 488 conjugated donkey-anti-rabbit (both Thermo Fisher Scientific) were used as secondary antibodies and incubated in 1:1,000 dilutions in 0.1% TBS-T for 1 h. Each step was followed by extensive wash with 0.1% TBS-T. Fluorescence detection was performed using G-Box Chemi-XRQ (Syngene Synoptics, Cambridge, UK) with filters UV06 and 705 nm for AF-488 and AF-647, respectively, and the band intensities of HMBS relative to the loading control (actin) were determined using ImageJ (Schneider et al., Nature methods 2012; 9(7): 671-5).

**Q.** How did the “Toxicity in treated mice” value ([1]; 10 mg/kg/day oral gavage, 12 days, behavior and organ appearances) turn out when `O=Cc1cc(Cc2ccccc2Cl)cc([N+](=O)[O-])c1O` [BG-1] was run?
**A.** No apparent toxicity; also recorded: No toxic effect was registered

**Q.** What about the “HMBS protein levels or activity in erythrocytes or liver” value ([1]; 10 mg/kg/day, 12 days, compared to non-treated Hmbs-deficient mice) of the same molecule?
**A.** did not cause any significant change

**Q.** And the “Urinary levels of ALA” value ([1]; 10 mg/kg/day, day 12, compared to non-treated mice)?
**A.** slight decreasing tendency

**Q.** And the “Relative activity, pre-inc. at 70° C” value (WT-HMBS [2])?
**A.** 1.01 ± 0.06

**Q.** And the ΔTm at 122 µM (WT-HMBS [3]; thermal upshift at y = 0.5 in scaled fluorescence curves, average compound concentration 122 μM (2% DMSO))?
**A.** 1.6 °C

**Q.** What about the “Hepatic HMBS enzyme activity in liver homogenates” value [4] of the same molecule?
**A.** significantly increased enzyme activity

**Q.** What about the “Urinary ALA and PBG excretion” value [4] of the same molecule?
**A.** reduced

**Q.** And the “Relative concentration of ALA in liver” value ([4]; p<0.05 compared with control mice)?
**A.** decreased

**Q.** What about the “Relative concentration of PBG in liver” value ([4]; p=0.053 compared with control mice) of the same molecule?
**A.** decreased

**Q.** And the “Increase in steady-state levels of HMBS in liver tissue” value [4]?
**A.** 2 fold

**Q.** What does the source list for `O=C(c1ccccc1)c1ccc(Cl)c([N+](=O)[O-])c1` [BG-2]?
**A.** ΔTm at 122 µM (WT-HMBS [3]; Table 3, average compound concentration 122 μM (2% DMSO)): 4.9 °C; Hepatic HMBS enzyme activity in liver homogenates [4]: significantly increased enzyme activity; Urinary ALA and PBG excretion [4]: reduced; Increase in steady-state levels of HMBS in liver tissue [4]: 2 fold
